Experimental data: patent publication US20030196279A1, “Single-bath biopreparation and dyeing of textiles” (Novozymes North America, Inc., priority 1999, published 2003)

Assays:
[1] = Wetting test, water drop test, AATCC Test Method 79-1992; conditions: Example 10; added to pectinase biopreparation and dyeing solution
Procedure: The wetting test was performed using water according to AATCC Test Method 79-1992. Five measurements were taken from each of three areas along the fabric in this water drop test. Color measurements were made using reflectance Macbeth Color Eye System with Optiview 1.7 software, using 10° standard observer and illuminant D65, which represents average daylight over range of 380-830 nm. Ten measurements at different positions of fabric tube were carried out.

[2] = system: pectate lyase; assay: Compatibility of pectate lyase with dyes, vibration viscometry assay on polygalacturonic acid; type: biochemical; conditions: 0.5 ml of 10 g/l dye solution added; pH 8.5, 40° C., 20 minutes; relative to none-dye control
Procedure: An analytical assay is used in compatibility tests. Prior to this assay, 5 mM phosphate buffer pH 8.5 is made up using KH2PO4 and NaOH (both from Fisher). The other solutions are constituted as follows:
i) The substrate is polygalacturonic acid in sodium salt form (from SIGMA). The substrate solution is made up to 11.436 g/l by dissolving polygalacturonic acid sodium salt in the phosphate buffer.
ii) Dye solutions are made up to 10 g/l by dissolving a commercial dye in the phosphate buffer.
iii) An internal standard pectate lyase (2600 APSU/g) is used. The enzyme solution is made up to 500 APSU/ml by dissolving the pectate lyase in the phosphate buffer.
During the assay, 3.5 ml substrate solution was pipetted into each tube. 0.5 ml of a dye solution or buffer was added and mixed well. The tube was then preheated in 40° C. water bath for 5 minutes. A total of 0.5 ml solution, including enzyme, and buffer was added using Hamilton Micro Lab 900. In dye compatibility, the 0.5 ml solution was made up with 40 μl enzyme solution and 460 μl buffer. For standard curve, 0-90 μl enzyme solution was used. Once enzyme was added, the solution was mixed immediately and the tube incubated at 40° C. for 20 minutes. The viscosity was then measured after putting the tube on a vibration viscometer (Sofraser Viscometer-mivi 3000, from France) for 10 seconds. At all conditions, experiments were performed in duplicate.
A standard linear curve was obtained within 0-5 APSU/ml pectate lyase concentration range (0-45 μl enzyme solution added). The correlation is given in the equation below: […]
Since the Y was obtained from experimental measurements, X was then calculated using the above equation. The enzyme activity with the addition of dye was compared to the activity of none-dye control. The relative activity is illustrated in Table 13. […] Since the chromophore structure of reactive dye shares similar chemical structure of direct dye and other dye classes, similar compatibility results may be expected for other dye classes. […] Since commercial dyes are not pure and often contains salt, the positive impact may be due to the salt in dye formula.

[3] = system: pectate lyase activity on woven cotton fabric; conditions: Example 5; 2000 APSU/kg pectate lyase, pH 9.2, 60° C., 30 minutes, woven fabric 480U
Procedure: A buffer containing 2 mM borate at pH 9.2 and 1 g/l nonionic surfactant Tergitol 15-S-12 was prepared. The solution was transferred to Labomat beakers (Werner-Mathis USA, Inc., NC). […] Swatches of a woven fabric (type 480U from Testfabrics, Inc., PA) were then added to the beakers so that the liquor-to-fabric ratio was 10 ml/g. After the temperature was raised to 60° C., 2000 APSU/kg fiber of pectate lyase were added and the fabric was incubated at 60° C. for 30 minutes. The swatches were then removed and rinsed twice in hot and cold water.
The amount of residual pectic substances remaining on the fabric was determined by measuring the color strength of the fabric dyed with Ruthenium red, a dye with an affinity for pectic substances. For the Ruthenium red assay, a fresh solution was prepared containing 0.2 g/l Ruthenium red, 1.0 g/l ammonium chloride, 2.5 ml/l 28% ammonium hydroxide solution, 1.0 g/l Silwet L-77 (Wetter, Polyalkyleneoxide modified heptamethyltrisiloxane), and 1.1 g/l Tergitol 15-S-12. The solution was used at a ratio of 100 ml solution/gram of fabric. Fabric swatches were dyed at room temperature in Labomat beakers for 15 minutes and then rinsed with cold water. After drying, the color of swatches was assessed by measuring the reflectance of the Ruthenium red-dyed fabric on Macbeth color eye at 540 nm, and the dye on the fabric was calculated as K/S value.

Row | Compound | % Activity (relative pectate lyase activity) [2] | other results
1 | O=P(O)(O)OP(=O)(O)OP(=O)(O)O [sodium tripoly phosphate (STPP), sodium tripoly phosphate] | – | wettability (wetting time in the drop test, FIG. 2) [1]: better wettability
2 | O=S(=O)([O-])[O-].[Na+].[Na+] [sodium sulfate] | – | sodium sulfate concentration at which a minimum amount of pectic residue was left on the fabric [3]: about 20 g/l
3 | CC(=O)Nc1ccc2cc(S(=O)(=O)O)c(N=Nc3ccc(S(=O)(=O)CCOS(=O)(=O)O)cc3)c(O)c2c1.[Na] [Remazol Br. Orange 3R] | 110.1% | –
4 | cellulase | – | wettability (wetting time in the drop test, FIG. 2) [1]: better wettability

Second part, led by results:

Row | % Activity (relative pectate lyase activity) [2] | Compound | other results
5 | 117.6% | C=C(Br)C(=O)Nc1ccc(N=Nc2c(NC)ccc3cc(S(=O)(=O)[O-])cc(O)c23)c(S(=O)(=O)[O-])c1.[Na+].[Na+] [Lanasol Red 5B] | –
6 | 200.9% | Nc1c(S(=O)(=O)[O-])cc(Nc2cccc(S(=O)(=O)CCOS(=O)(=O)[O-])c2)c2c1C(=O)c1ccccc1C2=O.[Na+].[Na+] [Remazol Br. Blue R Spec.] | –
7 | 114.8% | Nc1c(N=Nc2ccc(S(=O)(=O)CCOS(=O)(=O)[O-])cc2)c(S(=O)(=O)[O-])cc2cc(S(=O)(=O)[O-])c(N=Nc3ccc(S(=O)(=O)CCOS(=O)(=O)[O-])cc3)c(O)c12.[Na+].[Na+].[Na+].[Na+] [Remazol Black B] | –
